# Where “and” joins values, the source holds several entries; their conditions need not be identical. Equal entries are not always repeated. Where two headings read alike, the source gives them in different places.
# Tests used:
# in vitro [1] = details: human
# human erythrocytes [2] = tested on: human erythrocytes
# human erythrocytes [3] = tested on: human erythrocytes; remark: listed apart in the source
# [4] = target: influenza virus A/WSN/33 NA (Influenza A virus, UniProt P03470); experiment: biochemical
# human erythrocytes [5] = experiment: Interference with hemagglutination in the viral HA assay
# in vitro [6] = details: dog
# [7] = tested on: NA of S. pneumoniae DSM20566 (precipitated bacterial proteins); experiment: Hemagglutination (HA)-based NA inhibition assay, bacterial; assay type: biochemical, Streptococcus pneumoniae; details: pure compounds; total protein of DSM20566; human erythrocytes; highest tested 100 μM
# Excerpt: Inhibition of pneumococcal NAs circumvents hemagglutination.
# Chain of influenza virus A/WSN/33 NA (P03470 whole entry, looked up): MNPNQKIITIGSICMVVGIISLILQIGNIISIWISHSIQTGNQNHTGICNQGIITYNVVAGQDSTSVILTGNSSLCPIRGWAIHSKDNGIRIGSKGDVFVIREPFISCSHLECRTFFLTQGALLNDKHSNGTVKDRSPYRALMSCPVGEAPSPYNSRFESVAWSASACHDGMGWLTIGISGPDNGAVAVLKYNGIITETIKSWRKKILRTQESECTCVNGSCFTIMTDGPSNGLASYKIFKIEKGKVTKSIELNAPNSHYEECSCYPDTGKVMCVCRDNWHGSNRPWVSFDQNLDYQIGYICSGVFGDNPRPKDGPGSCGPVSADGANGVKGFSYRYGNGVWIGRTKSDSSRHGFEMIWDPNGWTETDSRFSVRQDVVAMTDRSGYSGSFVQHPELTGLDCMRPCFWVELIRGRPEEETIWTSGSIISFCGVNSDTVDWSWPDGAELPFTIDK
Compound,CC50 at 72 h (in vitro [1]) [µM],sample concentrations provoking induction of erythrocyte lysis in viral HA assay (human erythrocytes [2]),sample concentrations provoking induction of erythrocyte lysis in bacterial HA assay (human erythrocytes [3]; human),IC50 [4] [µM],sample concentrations provoking prevention of virus-induced hemagglutination in viral HA assay (human erythrocytes [5]),CC50 at 72 h (in vitro [6]) [µM],CC50 (in vitro [1]) [µM],MIC in HA assay against S. pneumoniae DSM20566 [7],sample concentrations provoking induction of erythrocyte lysis in bacterial HA assay (human erythrocytes [3]),CC50 (in vitro [6]) [µM],sample concentrations provoking induction of erythrocyte lysis in viral HA assay (human erythrocytes [2]; human)
COc1ccc(C2CC(=O)c3c(cc(O)c(CC=C(C)C)c3O)O2)cc1 (stereo not shown) [Compound 19],> 100,no,31.6 to 100 µM,> 100,no,50.5 ± 6.32,–,–,–,–,–
"CC(C)=CCc1c(O)c(CC=C(C)C)c2[nH]c3c(O)cccc3c(=O)c2c1O [Compound 34, atalphylline]",–,no,–,> 100,no,–,60.4 ± 16.8,17.2 ± 12.5 µM,no,0.63 ± 0.04,–
"CC(C)=CCc1c(O)c(CC=C(C)C)c2c(c1O)C(=O)CC(c1cc(O)cc(O)c1)O2 (stereo not shown) [Compound 29, 2-(3,5-dihydroxyphenyl)-2,3-dihydro-5,7-dihydroxy-6,8-bis(3-methyl-2-buten-1-yl)-4H-1-benzopyran-4-one]",80.6 ± 2.47,–,100 µM,53.1 ± 17.5,31.6 to 100 µM,34 ± 7.96,–,31.6 ± 0.00 µM,–,–,100 µM
"CC(C)=CCc1c(O)cc(CCc2ccccc2)c(CC=C(C)C)c1O [Compound 33, 2,4-bis(3-methyl-2-buten-1-yl)-5-(2-phenylethyl)-1,3-benzenediol]",41.7 ± 14.6,no,–,97.7 ± 0.46,no,33.4 ± 21.4,–,10.0 ± 0.00 µM,no,–,–
"CC(C)=CCc1c(O)c(CC=C(C)C)c2occ(-c3ccc(O)c(O)c3)c(=O)c2c1O [Compound 31, 6,8-diprenylorobol]",47.1 ± 2.83,–,100 µM,37.9 ± 14.6,no,20 ± 1.53,–,–,–,–,31.6 to 100 µM
"CC(C)=CCC/C(C)=C/Cc1c(O)cc2c(c1O)C(=O)[C@H](O)[C@@H](c1ccc(O)cc1)O2 [Compound 26, bonanniol A]",63.2 ± 25.9,–,100 µM,63.9 ± 11.1,no,42.2 ± 22.6,–,10.0 ± 0.00 µM,–,–,31.6 to 100 µM
"CC(C)=CCc1cc(C2CC(=O)c3c(O)cc(O)cc3O2)ccc1O (stereo not shown) [Compound 20, 4',5,7-trihydroxy-3'-prenylflavanone]",> 100,–,100 or no,> 100,no,67.9 ± 2.62,–,–,–,–,100 or no
"COc1cc(C2CC(=O)c3c(O)cc(O)cc3O2)cc(CC=C(C)C)c1O (stereo not shown) [Compound 21, 2,3-dihydro-5,7-dihydroxy-2-[4-hydroxy-3-methoxy-5-(3-methyl-2-butenyl)phenyl]-4H-1-benzopyran-4-one]",> 100,no,–,45.5 ± 6.06,no,64.9 ± 1.28,–,65.8 ± 37.5 µM,no,–,–
"CC(C)=CCc1c(O)c(CC=C(C)C)c2occ(-c3ccc(O)cc3)c(=O)c2c1O [Compound 30, 6,8-diprenylgenistein]",48.8 ± 16,no,31.6 to 100 µM,62.5 ± 5.4,10 to 100 µM,21.1 ± 0.91,–,10.0 ± 0.00 µM,–,–,–
"CC(C)=CCc1c(O)c(CC=C(C)C)c2c(c1O)C(=O)C[C@@H](c1ccc(O)cc1)O2 [Compound 28, 6,8-diprenylnaringenin]",59.1 ± 19.8,no,100 µM,> 100,no,15.8 ± 7.58,–,15.4 ± 10.8 µM,–,–,–
"COc1cc(C2CC(=O)c3c(O)cc(O)cc3O2)ccc1O (racemic) [Compound 9, (±)-homoeriodictyol]",–,no,–,–,no,–,–,–,no,–,–
"CC(C)=CCC/C(C)=C/Cc1c(O)cc(O)c2c1OC(c1ccccc1)CC2=O (racemic) [Compound 24, (R,S)-8-geranyl-5,7-dihydroxyflavanone]",> 100,no,100 µM,> 100,100 µM,60.6 ± 3.81,–,3.16 ± 0.00 µM,–,–,–
CC(C)=CCC/C(C)=C/Cc1c(O)cc2c(c1O)C(=O)CC(c1ccc(O)c(O)c1)O2 (stereo not shown) [Compound 25],> 100,–,100 µM,41.4 ± 6.98,31.6 µM,55.8 ± 4.41,–,14.3 ± 9.66 µM,–,–,100 or no
"CC(C)=CCC12Oc3cc(O)c(C4=CC5(C)CC(C4)c4ccc(O)cc4O5)c(O)c3C(=O)C1(O)Oc1cc(O)ccc12 (stereo not shown) [Compound 1, sanggenon B]",–,–,100 µM,31.2 ± 10.1,31.6 µM,–,32 ± 9.16,31.6 ± 0.00 µM,–,28.1 ± 7.26,100 or no
"CC1=C[C@H](c2c(O)ccc([C@@H]3CC(=O)c4c(O)cc(O)cc4O3)c2O)[C@@H](C(=O)c2ccc(O)cc2O)[C@H](c2ccc(O)cc2O)C1 [Compound 6, kuwanon L]",–,–,100 µM,37.2 ± 10.6,31.6 µM,–,94.4 ± 4.73,31.6 µM and 31.6 ± 0.00 µM,–,> 100,100 µM
"COc1cc(C2CC(=O)c3c(cc(O)c(CC=C(C)C)c3O)O2)ccc1O (stereo not shown) [Compound 22, 2,3-dihydro-5,7-dihydroxy-2-(4-hydroxy-3-methoxyphenyl)-6-(3-methyl-2-buten-1-yl)-4H-1-benzopyran-4-one]",> 100,no,–,> 100,no,63.4 ± 8.31,–,31.6 ± 0.00 µM,no,–,–
"CC(C)=CCc1c(O)c(CC=C(C)C)c2c(c1O)C(=O)C(c1ccc(O)cc1O)CO2 (stereo not shown) [Compound 32, orientanol E]",79.6 ± 2.77,–,31.6 to 100 µM,26.9 ± 1.85,no,21.4 ± 0.73,–,10.0 ± 0.00 µM,–,–,31.6 to 100 µM
